Target: T1, SAMTOR (Homo sapiens, UniProt Q1RMZ1)
T1 sequence (Q1RMZ1 1-405): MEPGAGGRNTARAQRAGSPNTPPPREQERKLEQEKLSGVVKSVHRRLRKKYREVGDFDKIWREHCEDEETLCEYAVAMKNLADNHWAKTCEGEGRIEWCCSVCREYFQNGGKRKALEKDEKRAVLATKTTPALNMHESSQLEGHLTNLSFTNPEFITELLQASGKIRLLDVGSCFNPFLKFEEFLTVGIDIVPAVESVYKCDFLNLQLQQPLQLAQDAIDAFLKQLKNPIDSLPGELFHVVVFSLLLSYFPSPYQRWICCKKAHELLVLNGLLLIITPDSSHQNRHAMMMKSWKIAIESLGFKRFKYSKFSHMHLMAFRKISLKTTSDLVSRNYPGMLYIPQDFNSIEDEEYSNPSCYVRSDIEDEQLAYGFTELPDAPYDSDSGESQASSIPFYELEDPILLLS
Experiment: competition binding against [3H]SAM on purified FLAG-SAMTOR
Conditions: competitive with [3H]SAM

Nc1ncnc2c1ncn2[C@@H]1O[C@H](CSCC[C@H](N)C(=O)O)[C@@H](O)[C@H]1O [SAH]
Ki: SAMTOR can also bind S-adenosylhomocysteine (SAH), the demethylated form of SAM
